# Measured values reported in US20080241080A1, “COMPOSITION FOR TREATING XEROSTOMIA OR DRY MOUTH” (BIOCOSMETICS, S.L., priority 2007, published 2008).
# Test: Dentin loss under extreme erosion conditions, composition versus its three ingredients separately (Example 8)
# Design: species or system cow
# Details: 10 cycles: 5 min pre-treatment, 1% citric acid pH 2.3 for 3 min; vs distilled water
# Experimental: The protective capacity of a mouthwash formulated with olive oil, trimethylglycine and xylitol in dentin subjected to extreme erosion conditions was analysed, compared to that of aqueous solutions of the three ingredients separately in the same concentrations used in the mouthwash tested. For the evaluation of effects a control was included consisting of distilled water.
# Incisive teeth extracted from a cow's jaw were used, which were immersed in a 0.5% thymol solution at room temperature. The teeth were sectioned at the cementum-enamel junction by means of a water-cooled diamond scalpel (Exakt, Norderstedt, Germany), and the crowns and roots were embedded in acrylic resin cylinders (Paladur, Heraeus Kulzer, Wehrheim, Germany). Radicular cementum was completely eliminated. […]
# Dentin loss was quantified performing profile or profilometric measurements (Mahr Perthometer, Göttingen, Germany). […] After the experiment the adhesive tapes were removed and the samples were analysed again. The average depth of the eroded surfaces was thus calculated with respect to basic surface profiles by means of specific software (Mahr Perthometer Concept 7.0, Mahr, Göttingen, Germany).
# Dentin loss was calculated (mean±standard deviation) for each group and statistically analysed by Student's t test followed by Bonferroni's t test for multiple comparisons (Statistica 6.0, Statsoft, Tulsa, USA).
row,Compound,protective effect on dentin against erosion
1,"OC[C@@H](O)[C@H](O)[C@@H](O)CO [1% xylitol solution, xylitol]",did not demonstrate any protective effect
2,"C[N+](C)(C)CC(=O)[O-] [2% trimethylglycine solution, trimethylglycine]",did not demonstrate any protective effect
